Our source for the IC50 values is patent publication US10640495B2, “Heterocycle derivatives having TrkA inhibitory activity” (Shionogi & Co., Ltd., priority 2015, dated 2020).

human TrkA, sequence (P04629 440-796): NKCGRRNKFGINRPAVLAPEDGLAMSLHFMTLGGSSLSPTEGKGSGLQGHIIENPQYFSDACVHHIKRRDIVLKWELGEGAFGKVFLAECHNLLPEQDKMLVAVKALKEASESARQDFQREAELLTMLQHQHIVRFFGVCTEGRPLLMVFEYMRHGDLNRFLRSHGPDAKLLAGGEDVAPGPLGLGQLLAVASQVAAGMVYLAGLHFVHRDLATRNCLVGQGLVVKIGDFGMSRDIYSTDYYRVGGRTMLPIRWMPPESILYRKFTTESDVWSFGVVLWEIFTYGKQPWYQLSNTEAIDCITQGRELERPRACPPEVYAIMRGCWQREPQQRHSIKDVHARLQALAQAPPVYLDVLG

For the first test, the target named is human TrkA (Homo sapiens (Human), UniProt P04629). Briefly: Human TrkA inhibition assay (Test Example 2). The note with it: Table 153, human TrkA inhibition; read-out: IC50. The class given is biochemical. The procedure:
Seven point five μL per well of human TrkA (PV3144, Lifetechnologies, final concentration: 1 nmol/L) suspended in the assay buffer (100 mmol/L 4-(2-hydroxyethyl)-1-piperazineethanesulfonic acid (HEPES), 10 mmol/L magnecium chloride, 0.003 vol % Brij-35, 0.004 vol % Tween20 and 1 mmol/L dithiothreitol (DTT)) was applied in a 384 well plate and the plate was pre-incubated for 15 min at room temperature with 0.4 μL of each compound (final concentration: 200 μmol/L-1 pmol/L) dissolved in DMSO. Then, fluorescent substrate (FL-peptide 27, 760424, PerkinElmer, final concentration: 1.5 μmol/L) and ATP (final concentration 500 μmol/L) dissolved in the assay buffer was added in each well. After the incubation of 120 min at 37° C., fifteen μL of termination buffer (100 mmol/L HEPES, 40 mmol/L ethylenediaminetetraacetic acid (EDTA), 10 mmol/L magnecium chloride, 0.003 vol % Brij-35, 0.004 vol % Tween20, 1 mmol/L DTT and 0.16 vol % Coating Reagent 3) was added in each well to stop the enzyme reaction. Fluorescent intensities (FI) of phosphorylated and non-phosphorylated fluorescent substrates were measured by LabChip EZReader II (Caliper LifeSciences, Inc.), and conversion ratio (CR) was calculated by the following formula-1. The CR in the well applied with DMSO alone was used as a negative control and the CR in the well without applying TrkA was used as a positive control. The inhibitory effect of each compound on TrkA phosphorylation was calculated by the following formula-2. CR (%)=(FI of phosphorylated substrate/(FI of phosphorylated substrate+FI of non-phosphorylated substrate))×100 (Formula-1) Phosphorylation inhibition (%)=(1−(CR with compound treatment−CR of positive control)/(CR of negative control−CR of positive control))×100 (Formula-2)
IC50 values (nmol/L) were determined by the logistic regression using the inhibition data in 10 points of 3-fold dilution series at a compound concentration range of 20 nmol/L to 1 pmol/L, or 10 points of 3-fold dilution series at the range of 2 μmol/L to 0.1 nmol/L, or 10 points of 3-fold dilution series at the range of 200 μmol/L to 10 nmol/L, or 15 points of 3-fold dilution series at the range of 200 μmol/L to 0.04 nmol/L.
The evaluation results of the compounds in the present invention are indicated as follows. IC50 values of 0 to 100 nM, 100 to 1000 nM and over 1000 nM were shown as “A”, “B” and “C”, respectively.
Consider `COCCN1C[C@@H](NC(=O)Nc2c(C)c(-c3cnc4c(cnn4C)c3)nn2-c2ccccc2)[C@H](c2cnc(F)c(F)c2)O1` (racemic) [Compound I-67], for which the IC50 (as a rule, the point on the concentration scale where inhibition reaches its midpoint) was < 0.1 µM.
The same measure, in the same setting: next, `CCOc1ncc(-c2nn(-c3ccccc3)c(NC(=O)N[C@@H]3CN(CCOC)O[C@H]3c3cnc(F)c(F)c3)c2C)cn1` (racemic) [Compound I-68]: < 0.1 µM; `COCCN1C[C@@H](NC(=O)Nc2c(C)c(-c3cnc4c(c3)ncn4C)nn2-c2ccccc2)[C@H](c2cnc(F)c(F)c2)O1` (racemic) [Compound I-69]: < 0.1 µM.
With `COCCN1C[C@@H](NC(=O)Nc2c(C)c(-c3cnc(C4CC4)nc3)nn2-c2ccccc2)[C@H](c2cnc(F)c(F)c2)O1` (racemic) [Compound I-70], the IC50 was < 0.1 µM.
The same measure, in the same setting: next, `COCCN1C[C@@H](NC(=O)Nc2c(C)c(-c3cc(C)c(=O)n(C)c3)nn2-c2ccccc2)[C@H](c2cnc(F)c(F)c2)O1` (racemic) [Compound I-71]: < 0.1 µM; `COCCN1C[C@@H](NC(=O)Nc2c(C)c(-c3cnc4c(c3)ncn4C)nn2-c2ccccc2)[C@H](c2ccc(F)c(F)c2)O1` (racemic) [Compound I-72]: < 0.1 µM; `COCCN1C[C@@H](NC(=O)Nc2c(C)c(-c3cc(C(=O)NC4CCOCC4)c(=O)n(C)c3)nn2-c2ccccc2)[C@H](c2cnc(F)c(F)c2)O1` (racemic) [Compound I-74]: < 0.1 µM.
With `CNC(=O)c1cc(-c2nn(-c3ccccc3)c(NC(=O)N[C@@H]3CN(CCOC)O[C@H]3c3cnc(F)c(F)c3)c2C)cn(C)c1=O` (racemic) [Compound I-75], the IC50 was < 0.1 µM.
`COCCN1C[C@@H](NC(=O)Nc2c(C)c(-c3ccnc(C(=O)OCc4ccccc4)c3)nn2-c2ccccc2)[C@H](c2ccc(F)c(F)c2)O1` (racemic) [Compound I-76]: the IC50 was < 0.1 µM.
As to `COCCN1C[C@@H](NC(=O)Nc2c(C)c(-c3ccnc(N=S(C)(C)=O)c3)nn2-c2ccccc2)[C@H](c2ccc(F)c(F)c2)O1` (racemic) [Compound I-77], the IC50 was < 0.1 µM.
On the same count and under the same terms, then `COCCN1C[C@@H](NC(=O)Nc2c(C)c(-c3cnc4c(c3)nc(CO)n4C)nn2-c2ccccc2)[C@H](c2ccc(F)c(F)c2)O1` (racemic) [Compound I-78], with < 0.1 µM; and `COCCN1C[C@@H](NC(=O)Nc2c(C)c(-c3cc(COC(C)=O)c(=O)n(C)c3)nn2-c2ccccc2)[C@H](c2cnc(F)c(F)c2)O1` (racemic) [Compound I-80], with < 0.1 µM; and `COCCN1C[C@@H](NC(=O)Nc2c(C)c(-c3cc(CO)c(=O)n(C)c3)nn2-c2ccccc2)[C@H](c2cnc(F)c(F)c2)O1` (racemic) [Compound I-81], with < 0.1 µM.
Regarding `COCCN1C[C@@H](NC(=O)Nc2c(C)c(-c3cnc4c(c3)c(CO)nn4C)nn2-c2ccccc2)[C@H](c2cnc(F)c(F)c2)O1` (racemic) [Compound I-84], the IC50 was < 0.1 µM.
Turning to `COCCN1C[C@@H](NC(=O)Nc2c(C)c(-c3cncc(N=S(C)(C)=O)c3)nn2-c2ccccc2)[C@H](c2ccc(F)c(F)c2)O1` (racemic) [Compound I-85], the IC50 is < 0.1 µM.
In the case of `COCCN1C[C@@H](NC(=O)Nc2c(C)c(-c3cnn(C)c3)nn2-c2ccc(F)c(F)c2)[C@H](c2ccc(F)c(F)c2)O1` (racemic) [Compound I-86], the IC50 was < 0.1 µM.
`COCCN1C[C@@H](NC(=O)Nc2c(C)c(-c3cnn(C)c3)nn2-c2ccc(F)cc2)[C@H](c2ccc(F)c(F)c2)O1` (racemic) [Compound I-87]: the IC50 is < 0.1 µM.
On to `COCCN1C[C@@H](NC(=O)Nc2c(C)c(-c3cnn(C)c3)nn2C2CC2)[C@H](c2ccc(F)c(F)c2)O1` (racemic) [Compound I-88], for which the IC50 was > 1 µM.
On the same count and under the same terms, next, `COCCN1C[C@@H](NC(=O)Nc2c(C)c(-c3cccc(N=S(C)(C)=O)c3)nn2-c2ccccc2)[C@H](c2ccc(F)c(F)c2)O1` (racemic) [Compound I-89]: < 0.1 µM; `COCCN1C[C@@H](NC(=O)Nc2c(C)c(-c3cnn(C)c3)nn2-c2ccccc2)[C@H](c2ccnc(F)c2)O1` (racemic) [Compound I-91]: < 0.1 µM.
As for `COCCN1C[C@@H](NC(=O)Nc2c(C)c(-c3cnc(N=S(C)(C)=O)c(C)c3)nn2-c2ccccc2)[C@H](c2ccc(F)c(F)c2)O1` (racemic) [Compound I-92], the IC50 was < 0.1 µM.
On the same count and under the same terms, then `CNc1ncc(-c2nn(-c3ccccc3)c(NC(=O)N[C@@H]3CN(CCOC)O[C@H]3c3ccnc(F)c3)c2C)cn1` (racemic) [Compound I-93], with < 0.1 µM; and `COCCN1C[C@@H](NC(=O)Nc2cc(-c3cnc(OC)c(C(=O)NC4CCOCC4)c3)nn2C)[C@H](c2ccnc(F)c2)O1` (racemic) [Compound I-94], with > 1 µM; and `CNC(=O)c1cc(-c2cc(NC(=O)N[C@@H]3CN(CCOC)O[C@H]3c3ccnc(F)c3)n(C)n2)cnc1OC` (racemic) [Compound I-95], with > 1 µM.
As for `COCC[C@@H]1C[C@@H](NC(=O)Nc2c(C)c(-c3cnc4c(cnn4C)c3)nn2-c2ccccc2)[C@H](c2ccnc(F)c2)O1` (racemic) [Compound I-97], the IC50 was < 0.1 µM.
With `COCC[C@@H]1C[C@@H](NC(=O)Nc2c(C)c(-c3cnc4c(cnn4C)c3)nn2-c2ccccc2)[C@H](c2ccc(F)c(F)c2)O1` (racemic) [Compound I-99], the 50% inhibitory concentration (IC50) is < 0.1 µM.
Same read-out and setting: next, `CNC(=O)c1cc(-c2nn(-c3ccccc3)c(NC(=O)N[C@@H]3CN(CCOC)O[C@H]3c3ccnc(F)c3)c2C)cnc1OC` (racemic) [Compound I-100]: < 0.1 µM; `COCCN1C[C@@H](NC(=O)Nc2c(C)c(-c3cnc(OC)c(C(N)=O)c3)nn2-c2ccccc2)[C@H](c2cnc(F)c(F)c2)O1` (racemic) [Compound I-101]: < 0.1 µM; `COCCN1C[C@@H](NC(=O)Nc2c(C)c(-c3cnc(OC)c(C(N)=O)c3)nn2-c2ccccc2)[C@H](c2cnc(OC)c(F)c2)O1` (racemic) [Compound I-102]: < 0.1 µM.
With `COCCN1C[C@@H](NC(=O)Nc2c(C)c(-c3cnc(OC)c(C(=O)NC4CCS(=O)(=O)CC4)c3)nn2-c2ccccc2)[C@H](c2cnc(F)c(F)c2)O1` (racemic) [Compound I-103], the IC50 is < 0.1 µM.
The same measure, in the same setting: next, `COCCN1C[C@@H](NC(=O)Nc2c(C)c(-c3cnc(OC)c(C(=O)NC4CCS(=O)(=O)CC4)c3)nn2-c2ccccc2)[C@H](c2cnc(OC)c(F)c2)O1` (racemic) [Compound I-104]: < 0.1 µM; `COCCN1C[C@@H](NC(=O)Nc2c(C)c(-c3cc(C(N)=O)c(=O)n(C)c3)nn2-c2ccccc2)[C@H](c2ccnc(F)c2)O1` (racemic) [Compound I-105]: < 0.1 µM; `CNC(=O)c1cc(-c2nn(-c3ccccc3)c(NC(=O)N[C@@H]3CN(CCOC)O[C@H]3c3ccnc(F)c3)c2C)cn(C)c1=O` (racemic) [Compound I-106]: < 0.1 µM.
Still for that read-out and setting: then `CCNC(=O)c1cc(-c2nn(-c3ccccc3)c(NC(=O)N[C@@H]3CN(CCOC)O[C@H]3c3ccnc(F)c3)c2C)cn(C)c1=O` (racemic) [Compound I-107], with < 0.1 µM; and `COCCN1C[C@@H](NC(=O)Nc2c(C)c(-c3cnc(OC)c(C(N)=O)c3)nn2-c2ccccc2)[C@H](c2ccnc(F)c2)O1` (racemic) [Compound I-109], with < 0.1 µM.

The test is the same for the next values; noted with them: human TrkA 1 nmol/L, ATP 500 μmol/L, 120 min at 37° C.; read-out: IC50 values (TrkA phosphorylation inhibition).
Turning to `COCCN1C[C@@H](NC(=O)Nc2c(C)c(-c3ccc(N=S(C)(C)=O)nc3)nn2-c2ccccc2)[C@H](c2ccc(F)c(F)c2)O1` (racemic) [Compound I-66], the IC50 amounted to 0.0016 µM.
`CNC(=O)c1cc(-c2nn(-c3ccccc3)c(NC(=O)N[C@@H]3CN(CCOC)O[C@H]3c3cnc(F)c(F)c3)c2C)cnc1OC` (racemic) [Compound I-73]: the IC50 is 0.0012 µM.
Still for that read-out and setting: then `COCCN1C[C@@H](NC(=O)Nc2c(C)c(-c3cnc4c(c3)c(=O)n(C)n4C)nn2-c2ccccc2)[C@H](c2cnc(F)c(F)c2)O1` (racemic) [Compound I-79], with 0.0015 µM; and `COCC[C@@H]1C[C@@H](NC(=O)Nc2c(C)c(-c3cnc(C)nc3)nn2-c2ccccc2)[C@H](c2ccnc(F)c2)O1` (racemic) [Compound I-96], with 0.015 µM.
Same read-out and setting: next, `COCCN1C[C@@H](NC(=O)Nc2c(C)c(-c3cc(C(=O)NC4CCOCC4)c(=O)n(C)c3)nn2-c2ccccc2)[C@H](c2ccnc(F)c2)O1` (racemic) [Compound I-108]: 0.001 µM.
